Assay results: patent US20110130370A1, “Pharmaceutical composition comprising a strontium salt, vitamin D and A cyclodextrin” (LES LABORATORIES SERVIER, priority 2009, published 2011)

Assay: Stability of the vitamin D3+RAMEB complex at 40° C./75% RH in sealed amber glass pill containers
Type: physicochemical
Description: The stability of the vitamin D3+RAMEB complex of Example 1B at 40° C./75% RH was tested and compare to the stability of: 1) pure vitamin D3, 2) a concentrate of vitamin D3 in powder form (DSM).
The study is carried out in pill containers of sealed amber glass (stopper of type for antibiotics, chlorobutyl, grey, D13—natural aluminium crimp-on cap D20 mm, tear-off lid).

For C=C1CC[C@H](O)C/C1=C/C=C1\CCC[C@]2(C)[C@@H]([C@H](C)CCCC(C)C)CC[C@@H]12 [pure vitamin D3, cholecalciferol], the “% vitamin D3” value (t0) was 98.0%, the “% vitamin D3” value (t0 + 3 weeks, 40° C./75% RH) was 20.3% and the “% vitamin D3” value (t0 + 6 weeks, 40° C./75% RH) was 23.1%.
